{"source": "paper PMC10388354", "about": "“Ir(III) Compounds Containing a Terdentate Ligand Are Potent Inhibitors of Proliferation and Effective Antimetastatic Agents in Aggressive Triple-Negative Breast Cancer Cells” (Journal of Medicinal Chemistry, 2023)", "type_in_all_cases": "cell-based, human", "key": {"[1]": {"tested_on": "vimentin in MDA-MB-231 VIM RFP cells", "assay": "Flow cytometric quantification of vimentin (VIM RFP reporter)", "conditions": "72 h", "method": "Quantification of vimentin expression after the treatment of MDA-MB-231 VIM RFP cells with tested compounds was determined with flow cytometry. MDA-MB-231 VIM RFP cells were seeded at the density of 1 × 10^4 cells/well and incubated overnight. […] After 72 h of incubation, cells were trypsinized and analyzed on a flow cytometer Cell Stream (Luminex, USA). The data were processed using Cell Stream analysis software or FCS Express 7 (DeNovo Software, CA). The fluorescence coming from the VIM RFP tag is proportional to the expression of vimentin in treated cells. Each sample analyzed by flow cytometry consisted of at least 30,000 events."}, "MDA-MB-231 VIM RFP cells [2]": {"tested_on": "MDA-MB-231 VIM RFP cells", "assay": "Wound healing assay", "method": "MDA-MB-231 VIM RFP cells were seeded on 35 mm confocal Petri dishes (Mattek) at the density of 3 × 10^5 cells/dish and incubated overnight or for a further 24–48 h to reach approximately 70% confluency. Defined scratch (220 μm width) was done under continuous suction with the pipette tip. Cells were washed, and the medium was replaced with the culture medium supplemented with tested compounds, applied at the equitoxic concentration (IC50,72h). Samples were incubated for an additional 24 h before fixation with 3.7% formaldehyde (10 min, RT) and mounted with ProLong Diamond Antifade Mountant (LifeSciences, Thermo Fisher Scientific). Samples were visualized with a confocal microscope Leica SP8 SMD operated under the deconvolution lightning mode. Images were analyzed by using ImageJ software. The scratch boundaries were identified with the MRI wound healing tool ImageJ plugin or identified manually."}, "MDA-MB-231 VIM RFP cells [3]": {"tested_on": "MDA-MB-231 VIM RFP cells", "assay": "Morphology of the vimentin intermediate filament network by confocal microscopy", "conditions": "24 h, IC50,72h", "method": "MDA-MB-231 VIM RFP cells were seeded on 35 mm confocal Petri dishes (Mattek) at the density of 2.5 × 10^5 cells per dish and incubated overnight. […] Then, samples were washed with PBS, fixed with 3.7% formaldehyde (10 min, RT), and mounted with ProLong Diamond Antifade Mountant with DAPI. Samples were visualized with a confocal microscope Leica SP8 SMD operated under the deconvolution lightning mode."}, "MCF-10A cells": {"tested_on": "MCF-10A cells", "assay": "Antiproliferative activity, sulforhodamine B (SRB) assay, non-malignant cells", "method": "The antiproliferative activity of the investigated compounds was evaluated using the SRB assay. The cells were seeded in 96-well tissue culture plates at a density of 3 × 10^3 cells/well in 100 μL of the medium. After overnight incubation in a humidified CO2 incubator, the cells were treated with the tested compounds in a final volume of 200 μL/well. After an additional 72 h, cells were washed with PBS and fixed for 1 h at 4 °C with trichloroacetic acid. Then, the cells were stained with 0.4% SRB dye for 30 min. Stained cells were dissolved with Tris (10 mM). The cell viability was evaluated by measurement of the absorbance at 570 nm using an absorbance reader (SPARK TECAN, SCHOELLER). The reading values were converted to the percentage of control (% cell survival). Antiproliferative effects were expressed as IC50 values calculated from curves constructed by plotting cell survival (%) versus drug concentration (μM) (IC50 = concentration of the agent inhibiting cell growth by 50%). Concentrations of compounds present in the medium during the treatment were verified by FAAS or ICP-MS."}, "MDA-MB-231 cells": {"tested_on": "MDA-MB-231 cells", "assay": "Anti-invasion activity, real-time monitoring (xCELLigence RTCA CIM plate)", "conditions": "cells treated with IC50,72h for 24 h before seeding; monitored 7 days; untreated control 21 h", "method": "The anti-invasive effects of the investigated Ir complexes in real time were assessed by the xCELLigence DP instrument with the migration RTCA CIM plate 16.[48] This system is based on the principle of the Boyden chamber that allows real-time monitoring of the number of invading cells. When cells migrate from the upper to lower wells through the microporous membrane with integrated microelectrodes, they contact and adhere to the microelectrodes affecting the impedance. The output of the experiment performed with this system is the dimensionless cell index (CI); when the cells invade, the CI increases. Moreover, it is possible to analyze the time from cell seeding to the time when invasion through the membrane matrix for each sample treated with tested compounds started (tinv). This period is determined by the intersection of the curve corresponding to the particular time-dependent cell response profile (TCRP) with the straight line corresponding to the threshold value (CI = 0). […] The invasion process was monitored for 7 days to determine whether cell death occurred during the subsequent time after the invasion was observed.\nAnti-invasion activity was monitored by the xCELLigence system (Roche). […] Samples were continuously monitored every 5 min for an additional 7 days. […]"}, "Vimentin": {"tested_on": "Vimentin", "assay": "RT-qPCR of EMT-related gene transcripts", "conditions": "MDA-MB-231, 24 h, IC50,72h", "method": "(§1) MDA-MB-231 cells were seeded on a six-well plate at the density of 0.5 × 10^6 cells per well and incubated overnight. […] Cells were harvested, and total RNA was isolated using NucleoSpin RNA columns (Machery Nagel, GE). One-step qPCR combining reverse transcription followed by amplification thermal cycling was applied using a Luna Universal One-Step RT-qPCR (New England BioLabs, MA, USA). Experiments were performed on an Illumina Eco Real-Time PCR (Illumina, CA, USA). The thermal profile was as follows: reverse transcription for 10 min at 55 °C and initial denaturation for 1 min at 95 °C, followed by 43 thermal cycles of denaturation for 10 s at 95 °C and extension for 30 s at 60 °C. Primer sequences were as follows: Β-actin-F: […]; Β-actin-R: […]; Vim-F: […]; Vim-R: […]; E-Cadherin-F: […]; E-Cadherin-R: […]; N-Cadherin-F: […]; N-Cadherin-R: […]; B-Catenin-F: […]; B-Catenin-R: […]; SNAI1-F: […]; SNAI1-R: […]. Purified primers were from Generi Biotech (Czech Republic). All runs included melting curve analysis and template-free negative technical controls to confirm specific single-product amplification. Β-actin was used as an internal control. The relative expression of mRNA is represented as a fold increase (2^–ΔΔCt).[69]"}, "B-catenin": {"tested_on": "B-catenin", "assay": "RT-qPCR of EMT-related gene transcripts", "conditions": "MDA-MB-231, 24 h, IC50,72h", "method": "as §1"}, "SNAI1": {"tested_on": "SNAI1", "assay": "RT-qPCR of EMT-related gene transcripts", "conditions": "MDA-MB-231, 24 h, IC50,72h", "method": "as §1"}, "E-Cadherin": {"tested_on": "E-Cadherin", "assay": "RT-qPCR of EMT-related gene transcripts", "conditions": "MDA-MB-231, 24 h, IC50,72h", "method": "as §1"}, "N-Cadherin": {"tested_on": "N-Cadherin", "assay": "RT-qPCR of EMT-related gene transcripts", "conditions": "MDA-MB-231, 24 h, IC50,72h", "method": "as §1"}, "[4]": {"tested_on": "spheroids generated from MDA-MB-231 cells", "assay": "Morphological quantification of 3D tumor spheroids and cell-invasive potential", "conditions": "for protrusion occurrence (length): control 32 μm", "excerpt": "The cancer cell transition from proliferation to invasion is usually initiated by nutrient stress and unfavorable conditions caused by the progressive growth of the primary tumor.[63] To study the dynamics of cells to evade the primary tumor, we monitored the morphology of spheroids generated from MDA-MB-231 cells embedded in an agar matrix.[64] Multicellular tumor spheroids represent the most used 3D in vitro model[65] and offer the opportunity to study the invasive potential of cancer cells under conditions much closer to the in vivo situation than when the traditional Transwell assay is used.[64] Morphological parameters were utilized to evaluate the invasive potential of spheroids generated from MDA-MB-231 cells.[66] Spheroid perimeter is the most useful morphological parameter for quantifying overall proliferation, whereas roundness, shape integrity, and quantification of protrusion occurrence are the morphological parameters related to the invasion potential.[64],[66] At the most compact stage, cells on the surface follow the contour of the spheroid. This morphology resembles the proliferating but not invading character of the spheroid, whereas diffuse and rough borders are the signs of the invasive character of peripheral cells. Assessment of the spheroid circularity (roundness) was analyzed by the automated edge detection and measurement of the enclosed area. A circularity equal to one indicates a perfectly circular spheroid, whereas lower values indicate a loss of circularity. The solidity is an indicator of the regularity of the spheroids’ surface or its roughness and thus can be considered the indicator of the primary protrusions and the overall regularity of the spheroid.[66]\nMDA-MB-231 cells were seeded in a sandwich agar matrix (0.5% bottom gel and 0.35% upper cell-containing gel). First, wells of 24-well plates were covered with 0.5% agar gel, and then MDA-MB-231 cells were resuspended in 0.35% agar matrix. The detailed protocol was as follows: Stock solution of agar gel was prepared by autoclaving 1 g of agar in 100 mL of PBS for at least a 20 min liquid cycle. Twenty-four-well plates were covered with 1 mL of 0.5% agar created by mixing 1% agar solution with cultivation media in 1:1 ratio. The dish was then layered with 1 mL of 0.35% agar composed of 0.35 mL of 1% agar and 0.65 mL of cultivation media containing 10^5 MDA-MB-231 cells. After gel solidification, the dish was covered with 2 mL of cultivation media. Mixing of agar solution and media was carried out after the agar solution cooled to approximately 40 °C to prevent damage by high temperature. Cells were cultured for an additional 7 days to establish spheroid structures, then treated with tested compounds at the equitoxic concentration corresponding to IC50,72h, and cultured for an additional 72 h. Samples were photographed on a phase contrast microscope (Olympus CKX41), and images were processed and analyzed for morphology parameters in ImageJ software."}, "[5]": {"conditions": "β-actin reference, untreated control as calibrator"}, "[6]": {"conditions": "one week-old spheroids, 72 h treatment at IC50,72h"}}, "data": [{"smiles": "COc1cccc2c1C(=O)c1c(O)c3c(c(O)c1C2=O)C[C@@](O)(C(=O)CO)C[C@@H]3O[C@H]1C[C@H](N)[C@H](O)[C@H](C)O1", "note": "[Dox, doxorubicin]", "values": [{"measurement": "RFP fluorescence of VIM RFP reporter", "setting": "[1]; 2-fold IC50,72h", "value": "somewhat suppressed the RFP fluorescence"}, {"measurement": "vimentin expression", "setting": "[1]; sub-toxic concentrations", "value": "considerably increased vimentin expression"}, {"measurement": "wound healing assay observation", "setting": "MDA-MB-231 VIM RFP cells [2]; 24 h, IC50,72h", "value": "induced formation of the pseudopods"}, {"measurement": "wound closure capacity", "setting": "MDA-MB-231 VIM RFP cells [2]; 24 h after treatment with IC50,72h, untreated control 70%", "value": 67, "unit": "%"}, {"measurement": "morphology of vimentin intermediate filaments", "setting": "MDA-MB-231 VIM RFP cells [3]", "value": "adopted a typical structure"}, {"measurement": "IC50", "setting": "MCF-10A cells; Homo sapiens, MCF-10A, SRB assay, 72 h incubation, mean ± SD, non-cancerous cells", "value": "8.6 ± 0.8", "unit": "µM"}, {"measurement": "SI, average selectivity index", "setting": "MCF-10A cells; IC50 (MCF-10A)/average IC50 (MDA-MB-231 and MCF-7)", "value": "~18"}, {"measurement": "tinv, period needed to invade through the matrix membrane", "setting": "MDA-MB-231 cells", "value": "approximately 35 h"}, {"measurement": "effect on expression of vimentin", "setting": "Vimentin", "value": "slightly upregulated also the expression of vimentin"}, {"measurement": "relative mRNA expression Vimentin (2^–ΔΔCt)", "setting": "Vimentin; [5]", "value": 1.21}, {"measurement": "upregulation of expression of β-catenin", "setting": "B-catenin", "value": "~3", "unit": "fold"}, {"measurement": "relative mRNA expression B-catenin (2^–ΔΔCt)", "setting": "B-catenin; [5]", "value": 2.86}, {"measurement": "upregulation of expression of SNAI1", "setting": "SNAI1", "value": "~2", "unit": "fold"}, {"measurement": "relative mRNA expression SNAI1 (2^–ΔΔCt)", "setting": "SNAI1; [5]", "value": 1.63}, {"measurement": "effect on expression of E-cadherin", "setting": "E-Cadherin", "value": "the expression of E-cadherin slightly decreased"}, {"measurement": "relative mRNA expression E-Cadherin (2^–ΔΔCt)", "setting": "E-Cadherin; [5]", "value": 0.73}, {"measurement": "upregulation of expression of N-cadherin", "setting": "N-Cadherin", "value": "~3", "unit": "fold"}, {"measurement": "relative mRNA expression N-Cadherin (2^–ΔΔCt)", "setting": "N-Cadherin; [5]", "value": 3.39}, {"measurement": "mean perimeter of spheroids", "setting": "[4]; 72 h treatment at IC50,72h, control 2.1 mm", "value": "about 2.8 mm"}, {"measurement": "solidity", "setting": "[4]; one week-old spheroids, 72 h at IC50,72h, control 3.0, Ir1 value affected by collapse of the spheroid structure", "value": 6.3}, {"measurement": "secondary protrusions (SP)", "setting": "[4]; [6]", "value": "secondary protrusions were identified"}, {"measurement": "circularity", "setting": "[4]; one week-old spheroids, 72 h treatment at IC50,72h, control 0.96", "value": 0.66}, {"measurement": "protrusion occurrence (number)", "setting": "[4]; one week-old spheroids, 72 h treatment at IC50,72h, control 4", "value": 2}, {"measurement": "protrusion occurrence (length)", "setting": "[4]; [6]", "value": 73, "unit": "μm"}, {"measurement": "protrusion occurrence (length)", "setting": "[4]; one week-old spheroids, 72 h treatment at IC50,72h, listed as doxorubicin", "value": "up to 73 μm"}, {"measurement": "perimeter", "setting": "[4]; one week-old spheroids, 72 h treatment at IC50,72h, control 2120 ± 310", "value": "2820 ± 506", "unit": "μm"}]}]}
